Laboratory results taken from patent publication US9131720B2, “High-potency sweetener composition with phytosterol and compositions sweetened therewith” (The Coca-Cola Company, priority 2005, dated 2015).

What was measured:
[1] = Sensory evaluation of sweetness linger by a panel of experts; type: in vivo; conditions: for Sweetness linger rating: 3-4 min after water rinse; for Sweetness Linger rating defined for control samples: scale anchors of the protocol, sucrose, 500 ppm REBA control sample
Method: In a particular embodiment, a panel of assessors is used to measure the reduction of sweetness linger. Briefly described, a panel of assessors (generally 8 to 12 individuals) is trained to evaluate sweetness perception and measure sweetness at several time points from when the sample is initially taken into the mouth until 3 minutes after it has been expectorated. […] A decrease in score for a time point measured after the sample has cleared the mouth indicates there has been a reduction in sweetness perception.
The panel of assessors may be trained using procedures well known to those of ordinary skill in the art. In a particular embodiment, the panel of assessors may be trained using the Spectrum™ Descriptive Analysis Method (Meilgaard et al, Sensory Evaluation Techniques, 3rd edition, Chapter 11). Desirably, the focus of training should be the recognition of and the measure of the basic tastes; specifically, sweet. In order to ensure accuracy and reproducibility of results, each assessor should repeat the measure of the reduction of sweetness linger about three to about five times per sample, taking at least a five minute break between each repetition and/or sample and rinsing well with water to clear the mouth.
Generally, the method of measuring sweetness comprises taking a 10 mL sample into the mouth, holding the sample in the mouth for 5 seconds and gently swirling the sample in the mouth, rating the sweetness intensity perceived at 5 seconds, expectorating the sample (without swallowing following expectorating the sample), rinsing with one mouthful of water (e.g., vigorously moving water in mouth as if with mouth wash) and expectorating the rinse water, rating the sweetness intensity perceived immediately upon expectorating the rinse water, waiting 45 seconds and, while waling those 45 seconds, identifying the time of maximum perceived sweetness intensity and rating the sweetness intensity at that time (moving the mouth normally and swallowing as needed), rating the sweetness intensity after another 10 seconds, rating the sweetness intensity after another 60 seconds (cumulative 120 seconds after rinse), and rating the sweetness intensity after still another 60 seconds (cumulative 180 seconds after rinse). Between samples take a 5 minute break, rinsing well with water to clear the mouth.
Sensory evaluation of the samples prepared in Example Set G was carried out under the following protocol, similar to that described hereinabove. In this test protocol, none of the samples were swallowed. All samples were expectorated and the mouth was rinsed with water after the tasting. Immediately upon sensing maximal sweetness, the sample was expectorated, the mouth was rinsed with water and the rate of sweetness decay (“Sweetness Linger”) was measured, where attention was focused on the sweetness 3-4 min after the water rinse. After sample tasting was complete, a salty oyster cracker was chewed followed by a water rinse, and at least 5 minutes followed before tasting the next sample. The sweetness linger was rated by a panel of experts in the sensory evaluation of foods and beverages using the following scale: 0=no sweetness linger, 1=very slight sweetness linger, 2=slight sweetness linger, 3 moderate sweetness linger, 4=moderately high sweetness linger, 5=high sweetness linger.
The “Sweetness Linger” rating for sucrose observed by this protocol is defined as 0. The Sweetness Linger of a 500 ppm of REBA control sample is defined as 5. […]

[2] = Rate of dissolution in H2O at 25° C. of rebaudioside A polymorphs; type: physicochemical
[3] = type: physicochemical
Method: A solution of rebaudioside A (>97% pure by HPLC) was prepared in double distilled water (12.5 gm in 50 mL, 25% concentration) by stirring the mixture at 40° C. for 5 minutes. An amorphous rebaudioside A polymorph was formed by immediately using the clear solution for spray drying with the Lab-Plant spray drier SD-04 instrument (Lab-Plant Ltd., West Yorkshire, U.K.). The solution was fed through the feed pump into the nozzle atomizer which atomized it into a spray of droplets with the help of a constant flow of nitrogen/air. […] This dry powder (11-12 g, H2O 6.74%) was discharged continuously from the drying chamber and was collected in a bottle.

[4] = 500 ppm REBA (H41: 360 ppm) in carbon-treated water with phosphoric acid (75%), pH 2.4-2.5, scale 0=no to 5=high sweetness linger

| Molecule | Sweetness linger rating [1, 4] | Sweetness Linger rating defined for control samples [1] | Sweetness linger rating ([1]; 400 ppm REBA in citric acid/potassium citrate composition equivalent to diet lemon-lime beverage, scale 0=no, 1=very slight, 2=slight, 3=moderate, 4=moderately high, 5=high sweetness linger) | Rate of dissolution in H2O at 25° C. [2] | Solubility in water at room temperature [3] |
| --- | --- | --- | --- | --- | --- |
| OC[C@H]1O[C@@](CO)(O[C@H]2O[C@H](CO)[C@@H](O)[C@H](O)[C@H]2O)[C@@H](O)[C@@H]1O [sugar, sucrose] | 0 | 0 | – | – | – |
| rebaudioside A | 5 | 5 | 5 | – | – |
| rebaudioside A [Form 4] | – | – | – | (>35.0%/ %/5 minutes | > 35.0% |
